Test results published in US5019505A, “Enzymes having alpha-glycerol-3-phosphate oxidase activity, production and use thereof” (GEnzyme (U.K.) Ltd., priority 1986, dated 1991).
Values joined by “and” are separate entries in the source; they are usually repeats but may differ in a detail not shown here. Equal entries are not always repeated. Where two headings read alike, the source gives them in different places.

Assays:
[1] = test system: α-GPO from P. freudenreichii subsp. shermanii (NCIMB 5964); assay: α-GPO assay (Trinder-type H2O2 colour reaction); format: biochemical; conditions: read-out: Km for L-α-glycerol-3-phosphate
[2] = test system: α-GPO from P. freudenreichii subsp. freudenreichii (NCIMB 5959); assay: α-GPO assay (Trinder-type H2O2 colour reaction); format: biochemical; conditions: read-out: Km for L-α-glycerol-3-phosphate
[3] = test system: previously described examples of α-GPO; conditions: prior art enzymes; read-out: Km values for L-α-glycerol-3-phosphate; cited from earlier work
[4] = test system: α-glycerol-3-phosphate oxidase (α-GPO) from Propionibacterium freudenreichii subsp. freudenreichii (DSM 20270); assay: α-GPO assay (Trinder-type H2O2 colour reaction, 505nm, 37° C.); format: biochemical
Experimental: Aliquots of the resulting supernatant containing partially purified α-GPO were used in the following test system: […]
L-α-glycerol-3-phosphate
4-amino-antipyrine 1.5 mM
Dimethylglutarate buffer (DMG; pH 7.5)
The rate of change of absorbance was measured at 505nm, 37° C. in a spectrophotometer.

[5] = test system: α-GPO from P. freudenreichii subsp. shermanii (formerly P. shermanii) (NCIMB 9885); assay: α-GPO assay (Trinder-type H2O2 colour reaction); format: biochemical, P. freudenreichii subsp. shermanii (NCIMB 9885); conditions: cell-free extract, read-out: Km of the α-GPO for L-α-glycerol-3-phosphate
Experimental: (§1) Freeze-dried cultures of `P. acidi-propionici`(formerly `arabinosum`) NCIMB 5958) and `P. freudenreichii` subsp. `shermanii`(formerly `P. shermanii`) (NCIMB 9885) were obtained from the National Collection of Industrial and Marine Bacteria, Torry Research Station, Aberdeen, Scotland. The organisms were grown in a similar manner to that described above for `P. freudenreichii` subsp. `freudenriechii` (DSM 20270). The microorganisms were harvested, disrupted and assayed for α-GPO again in a similar way to `P. `freudenreichii` subsp. `freudenreichii` (DSM 20270).

[6] = test system: α-GPO from P. acidi-propionici (formerly arabinosum) (NCIMB 5958); assay: α-GPO assay (Trinder-type H2O2 colour reaction); format: biochemical, P. acidi-propionici (NCIMB 5958); conditions: cell-free extract, read-out: Km of the α-GPO for L-α-glycerol-3-phosphate
Experimental: as §1

[7] = listed as L-α0glycerol-3-phosphate

O=P(O)(O)OC[C@H](O)CO [L-α-glycerol-3-phosphate]
Km [1]: 6 µM and ~6 µM
Km [2]: 26 µM and ~26 µM
Km [3]: ≥ 2500 µM
Km ([4]; characterisation of the preferred enzyme, read-out: Michaelis-Menten constant (Km) in respect of L-α-glycerol-3-phosphate): 15 µM
Km ([4]; high speed centrifugation supernatant, DMG pH 7.5, 37° C., 505nm, read-out: Km of the α-GPO for its substrate, L-α-glycerol-3-phosphate): 15 µM
Km ([4]; pooled active fractions after Sephadex G-200 gel filtration, read-out: Km of the α-GPO for its substrate L-α-glycerol-3-phosphate): 15 µM
Km ([4]; read-out: Km for L-α-glycerol-3-phosphate): 15 µM and ~15 µM
fold lower Km value than previously described α-GPO ([4]; versus Km of 2.5mM or greater of previously described α-GPO): 170 fold
Km [5, 7]: 22 µM
Km [5]: ~22 µM
Km [6, 7]: 18 µM
Km [6]: ~18 µM
